Source: patent US7723373B2, “Indole-3-sulphur derivatives” (AstraZeneca AB, priority 2002, dated 2010)

Biological target: T1, rhCRTh2 (Homo sapiens, UniProt Q9Y5Y4)
T1 construct: expressed in transfected cells; host or cells: HEK cells (membrane preparation)
T1 sequence (Q9Y5Y4 1-395): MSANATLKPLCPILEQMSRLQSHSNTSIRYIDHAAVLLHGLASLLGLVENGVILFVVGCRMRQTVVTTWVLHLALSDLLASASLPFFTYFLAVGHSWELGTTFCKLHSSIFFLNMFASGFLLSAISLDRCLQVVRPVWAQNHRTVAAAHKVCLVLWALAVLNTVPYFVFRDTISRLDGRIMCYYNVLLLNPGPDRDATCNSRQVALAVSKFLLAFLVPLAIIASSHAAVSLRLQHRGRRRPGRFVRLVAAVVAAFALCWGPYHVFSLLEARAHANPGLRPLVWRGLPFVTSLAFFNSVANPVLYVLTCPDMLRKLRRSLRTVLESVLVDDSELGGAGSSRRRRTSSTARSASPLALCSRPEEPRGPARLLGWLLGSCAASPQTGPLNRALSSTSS
Assay: Ligand binding assay ([3H]PGD2 SPA, HEK cell membranes)
Settings: [3H]PGD2 binding to membranes of HEK cells expressing rhCRTh2/Gα16, SPA beads, 2 hours at room temperature
Procedure: [^3H]PGD2 was purchased from Perkin Elmer Life Sciences with a specific activity of 100-210 Ci/mmol. All other chemicals were of analytical grade.
HEK cells expressing rhCRTh2/Gα16 were routinely maintained in DMEM containing 10% Fetal Bovine Serum (HyClone), 1 mg/ml geneticin, 2 mM L-glutamine and 1% non-essential amino acids. For the preparation of membranes, the adherent transfected HEKcells were grown to confluence in two layer tissue culture factories (Fisher, catalogue number TKT-170-070E). Maximal levels of receptor expression were induced by addition of […] sodium butyrate for the last 18 hours of culture. The adherent cells were washed once with phosphate buffered saline (PBS, 50 ml per cell factory) and detached by the addition of 50 ml per cell factory of ice-cold membrane homogenisation buffer [20 mM HEPES (pH 7.4), 0.1 mM dithiothreitol, 1 mM EDTA, 0.1 mM phenyl methyl sulphonyl fluoride and 100 μg/ml bacitracin]. […] The final pellet was re-suspended in 4 ml of membrane homogenisation buffer per cell factory used and the protein content determined. […]
All assays were performed in Corning clear bottomed, white 96-well NBS plates (Fisher). […] (The optimum coating concentrations were determined for each batch of membranes) The beads were pelleted by centrifugation (800×g for 7 minutes at 4° C.), washed once with assay buffer (50 mM HEPES pH 7.4 containing 5 mM magnesium chloride) and finally re-suspended in assay buffer at a bead concentration of 10 mg/ml.
Each assay contained 20 μl of 6.25 nM [^3]PGD2, 20 μl membrane saturated SPA beads both in assay buffer and 10 μl of compound solution or 13,14-dihydro-15-keto prostaglandin D2 (DK-PGD2, for determination of non-specific binding Cayman chemical company). […] The assay plate was incubated at room temperature for 2 hours and counted on a Wallac Microbeta liquid scintillation counter (1 minute per well).

pIC50	IC50	Molecule
7	–	5-chloro-3-[(4-chlorophenyl)sulfonyl]-6-cyano-2-methyl-1H-indole-1-acetic acid [Example 6]
–	0.00794 µM	Cc1c(S(=O)(=O)c2ccc(Cl)cc2)c2cc(Cl)ccc2n1CC(=O)O [Example 2, 5-chloro-3-[(4-chlorophenyl)sulfonyl]-2-methyl-1H-indole-1-acetic acid]
–	0.251 µM	Cc1ccc2c(c1)c([S+]([O-])c1ccc(Cl)cc1)c(C)n2CC(=O)O (stereo not drawn) [Example 7, 3-[(4-chlorophenyl)sulfinyl]-2,5-dimethyl-1H-indole-1-acetic acid]
